Reference: patent US6353016B1, “Potassium channel activators” (Nippon Shinyaku Co., Ltd., priority 1998, dated 2002)

What was measured:
[1] = test system: isolated guinea-pig trachea specimen; assay: Effect on the KCl-induced contraction of the isolated guinea-pig trachea specimen; format: cell-based
Procedure: Effect on the KCl-induced contraction of the isolated guinea-pig trachea specimen
As in Experimental Example 1, potassium channel activating activity was evaluated by comparing the relaxing effects of the test drug on 20 mM KCl-induced contraction and 100 mM KCl-induced contraction.
Male 5-13-week-old Hartley guinea pigs (body weights 400-730 g) were used in groups of 2-4. After the animal was bled to death under ether anesthesia, the trachea was isolated and 4 tracheal strips were connected to prepare a specimen in accordance with the method of Takagi et al. (Chem. Pharm. Bull., 6, 716-720 (1958)). The experiment was performed in the same manner as described in Experimental Example 1.

[2] = test system: blood pressure in anesthetized rats; assay: Effect on blood pressure in anesthetized rats; format: in vivo, rat; conditions: 100 mg/kg intraduodenally; urethane-anesthetized female SD rats; % change at time of maximal action, up to 3 hours
Procedure: Effect on blood pressure in anesthetized rats
Female 10-13-week-old SD rats (body weights 180-300 g) fasted from the previous day were used in groups of 2-4. The animal was placed in supine position under urethane anesthesia and the femoral artery was cannulated for blood pressure measurement. The blood pressure was recorded on a recorder through the cannula and a pressure transducer. When the blood pressure had stabilized, the test drug was administered intraduodenally and the effect on blood pressure was monitored up to 3 hours after administration.
Each value is expressed as the average of % changes at the time of maximal action.

[3] = test system: isolated rat aorta specimen; assay: Effect on KCl-induced contraction of the isolated rat aorta specimen; format: cell-based; conditions: papaverine (100 μM) = 100% relaxation
Procedure: Effect on KCl-induced contraction of the isolated rat aorta specimen
In the present experiment, potassium channel activating activity was evaluated by comparing the pIC50 values representing the relaxing effects of the test drug on the 20 mM KCl-induced contraction and 100 mM KCl-contraction. According to Br. J. Pharmacol., 88, 103-111 (1986) referred to above, potassium channel activators produce greater relaxing effects on 20 mM KCl-induced contraction than on 100 mM KCl-induced contraction.
Male 7-13-week-old SD rats (body weights 240-480 g) were used in groups of 4-6. After the animal was bled to death under ether anesthesia, the throacic aorta was isolated and dissected into a spiral specimen about 2 mm wide×about 20 mm long. Each specimen was suspended in a 10 ml Magnus bath containing Krebs-Henseleit solution (KH solution) aerated with 95% O2+5% CO2 at 37° C. A tension load of 1 g was applied and with the KH solution exchanged every 20 minutes, the specimen was equilibrated for about 90 minutes. Then, the experiment was commenced. The change in tension of the specimen was recorded on a recticorder through an isometric tension transducer. The specimen was caused to contract by replacing the KH solution in the Magnus bath with 20 mM or 100 mM KCl-containing KH solution (NaCl in KH solution was replaced with an equimolar amount of KCl) and when the contractile response had reached plateau, the test drug was cumulatively applied to evaluate the relaxing effect.
Each result was expressed in the average of the relaxation ratio obtained in the presence of the test drug, with the maximum relaxation found with papaverine (100 μM) being taken as the 100% relaxation response of the specimen.

CCOc1cccc(-c2cc(C#N)c(N3CCCC3)[nH]2)c1 [Compound 10, 3-Cyano-5-(3-ethoxyphenyl)-2-pyrrolidinopyrrole]
Relaxation effect (%) 20 mM KCl-induced contraction ([1]; 3 μM): 37%
Relaxation effect (%) 100 mM KCl-induced contraction ([1]; 3 μM): −15%

Cc1[nH]c(-c2ccccc2)c(C)c1C#N [Compound 9, 3-Cyano-2,4-dimethyl-5-phenylpyrrole]
Relaxation effect (%) 20 mM KCl-induced contraction ([1]; 10 μM): 79%
Relaxation effect (%) 100 mM KCl-induced contraction ([1]; 10 μM): 39%

Cc1c(-c2ccco2)[nH]c(N)c1C#N [Compound 4, 2-Amino-3-cyano-5-(2-furyl)-4-methylpyrrole]
Hypotensive effect (%) [2]: 25.6%
Relaxation effect (%) 20 mM KCl-induced contraction ([3]; 10 μM): 64%
Relaxation effect (%) 100 mM KCl-induced contraction ([3]; 10 μM): 12%

N#Cc1cc(-c2ccc3c(c2)OCO3)[nH]c1N1CCCC1 [Compound 11, 3-Cyano-5-(3,4-methylenedioxyphenyl)-2-pyrrolidinopyrrole]
Relaxation effect (%) 20 mM KCl-induced contraction ([1]; 10 μM): 37%
Relaxation effect (%) 100 mM KCl-induced contraction ([1]; 10 μM): 4%

N#Cc1cc(-c2ccc3c(c2)OCO3)[nH]c1N [Compound 5, 2-Amino-3-cyano-5-(3,4-methylenedioxyphenyl)pyrrole]
Relaxation effect (%) 20 mM KCl-induced contraction ([3]; 10 μM): 73%
Relaxation effect (%) 100 mM KCl-induced contraction ([3]; 10 μM): 18%
Relaxation effect (%) 20 mM KCl-induced contraction ([1]; 10 μM): 58%
Relaxation effect (%) 100 mM KCl-induced contraction ([1]; 10 μM): −7%

Cc1c(-c2ccccc2)[nH]c(N)c1C#N [Compound 2, 2-Amino-3-cyano-4-methyl-5-phenylpyrrole]
Hypotensive effect (%) [2]: 25.9%
Relaxation effect (%) 20 mM KCl-induced contraction ([3]; 10 μM): 78%
Relaxation effect (%) 100 mM KCl-induced contraction ([3]; 10 μM): 17%

Cc1c(-c2cccc(Cl)c2)[nH]c(N)c1C#N [Compound 3, 2-Amino-5-(3-chlorophenyl)-3-cyano-4-methylpyrrole]
Hypotensive effect (%) [2]: 14.1%
Relaxation effect (%) 20 mM KCl-induced contraction ([3]; 1 μM): 45%
Relaxation effect (%) 100 mM KCl-induced contraction ([3]; 1 μM): 6%

N#Cc1cc(-c2ccc(F)cc2F)[nH]c1N [Compound 6, 2-Amino-3-cyano-5-(2,4-difluorophenyl)pyrrole]
Relaxation effect (%) 20 mM KCl-induced contraction ([3]; 10 μM): 92%
Relaxation effect (%) 100 mM KCl-induced contraction ([3]; 10 μM): 24%

Cc1c(-c2ccccc2F)[nH]c(N)c1C#N [Compound 1, 2-Amino-3-cyano-5-(2-fluorophenyl)-4-methylpyrrole]
Relaxation effect (%) 20 mM KCl-induced contraction ([3]; 10 μM): 82%
Relaxation effect (%) 100 mM KCl-induced contraction ([3]; 10 μM): 28%

Cc1c(-c2cccc([N+](=O)[O-])c2)[nH]c(N)c1C#N [Compound 8, 2-Amino-3-cyano-4-methyl-5-(3-nitrophenyl)pyrrole]
Relaxation effect (%) 20 mM KCl-induced contraction ([1]; 3 μM): 58%
Relaxation effect (%) 100 mM KCl-induced contraction ([1]; 3 μM): −2%

Cc1[nH]c(-c2cccc(Cl)c2)cc1C#N [Compound 7, 5-(3-Chlorophenyl)-3-cyano-2-methylpyrrole]
Relaxation effect (%) 20 mM KCl-induced contraction ([1]; 3 μM): 64%
Relaxation effect (%) 100 mM KCl-induced contraction ([1]; 3 μM): 31%
